Experimental data: ChEMBL document CHEMBL1140679, “The identification of potent, selective, and bioavailable cathepsin S inhibitors” (Bioorg Med Chem Lett, 2007)

Experiments:
[1] = Inhibition of antigen presentation in mouse B cells; format: functional, cell-based
[2] = target: Cathepsin B (Rattus norvegicus, UniProt P00787); test: Inhibition of rat liver lysosomal cathepsin B
[3] = target: T1, Cathepsin K (Mus musculus, UniProt P55097); test: Inhibition of mouse recombinant cathepsin K
T1 sequence (P55097 whole entry): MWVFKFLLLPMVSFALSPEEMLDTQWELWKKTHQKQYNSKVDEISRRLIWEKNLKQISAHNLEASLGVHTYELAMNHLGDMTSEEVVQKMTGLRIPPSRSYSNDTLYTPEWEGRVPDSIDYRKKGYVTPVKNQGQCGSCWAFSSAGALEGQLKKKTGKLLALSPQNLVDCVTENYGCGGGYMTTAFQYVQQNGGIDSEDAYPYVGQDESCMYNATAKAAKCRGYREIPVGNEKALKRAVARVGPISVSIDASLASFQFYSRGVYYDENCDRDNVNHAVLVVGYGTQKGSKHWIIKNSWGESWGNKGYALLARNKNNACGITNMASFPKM

[4] = target: Cathepsin S (Mus musculus, UniProt O70370); test: Inhibition of mouse recombinant cathepsin S
[5] = target: T2, Cathepsin K (Homo sapiens, UniProt P43235); test: Inhibition of human cathepsin K
T2 sequence (P43235 whole entry): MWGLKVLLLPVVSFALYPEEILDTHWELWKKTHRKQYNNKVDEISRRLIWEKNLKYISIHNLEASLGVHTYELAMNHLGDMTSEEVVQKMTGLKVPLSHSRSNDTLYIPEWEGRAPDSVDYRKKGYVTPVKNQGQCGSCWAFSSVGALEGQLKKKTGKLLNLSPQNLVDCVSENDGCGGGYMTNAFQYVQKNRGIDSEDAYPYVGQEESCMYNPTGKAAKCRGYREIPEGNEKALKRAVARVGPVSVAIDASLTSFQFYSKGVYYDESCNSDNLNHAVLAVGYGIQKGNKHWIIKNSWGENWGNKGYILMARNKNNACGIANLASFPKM

[6] = target: Cathepsin S (Rattus norvegicus, UniProt Q02765); test: Inhibition of rat spleen cathepsin S; format: tissue-based
[7] = target: Cathepsin B (Homo sapiens, UniProt P07858); test: Inhibition of human cathepsin B
[8] = target: Cathepsin S (Homo sapiens, UniProt P25774); test: Inhibition of human cathepsin S
[9] = target: Cathepsin B (Mus musculus, UniProt P10605); test: Inhibition of mouse recombinant cathepsin B
[10] = target: T3, Procathepsin L (Rattus norvegicus, UniProt P07154); test: Inhibition of rat liver lysosomal cathepsin L
T3 sequence (P07154 whole entry): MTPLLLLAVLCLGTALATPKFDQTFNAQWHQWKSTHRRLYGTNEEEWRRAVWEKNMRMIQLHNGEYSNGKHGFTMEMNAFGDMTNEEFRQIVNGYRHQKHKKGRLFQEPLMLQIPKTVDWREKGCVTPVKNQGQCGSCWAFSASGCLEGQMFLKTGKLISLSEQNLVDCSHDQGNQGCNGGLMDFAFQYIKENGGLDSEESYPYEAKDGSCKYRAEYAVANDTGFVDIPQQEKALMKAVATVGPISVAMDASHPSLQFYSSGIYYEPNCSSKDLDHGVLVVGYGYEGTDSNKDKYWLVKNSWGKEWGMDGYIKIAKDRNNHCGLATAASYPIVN

[11] = target: Procathepsin L (Homo sapiens, UniProt P07711); test: Inhibition of human cathepsin L
[12] = target: T4, Procathepsin L (Mus musculus, UniProt P06797); test: Inhibition of mouse recombinant cathepsin L
T4 sequence (P06797 whole entry): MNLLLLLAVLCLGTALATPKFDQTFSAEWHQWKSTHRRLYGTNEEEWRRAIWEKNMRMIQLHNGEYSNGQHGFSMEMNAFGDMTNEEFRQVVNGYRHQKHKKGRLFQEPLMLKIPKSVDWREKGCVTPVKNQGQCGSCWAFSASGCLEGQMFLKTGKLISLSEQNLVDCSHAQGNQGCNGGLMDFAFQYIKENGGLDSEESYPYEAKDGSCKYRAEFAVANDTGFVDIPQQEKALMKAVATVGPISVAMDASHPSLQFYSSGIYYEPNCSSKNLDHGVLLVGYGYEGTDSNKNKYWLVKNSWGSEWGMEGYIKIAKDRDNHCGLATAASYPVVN

[13] = Bioavailability in po dosed Sprague-Dawley rat administered in 1:1 inwitor/tween 80 solution; format: ADME, organism-based; conditions: in vivo
[14] = Cmax in po dosed Sprague-Dawley rat administered in 1:1 inwitor/tween 80 solution; format: ADME, organism-based; set-up: route oral; conditions: in vivo
[15] = test system: Rattus norvegicus; test: Half life in po dosed Sprague-Dawley rat administered in 1:1 inwitor/tween 80 solution; format: ADME, organism-based; conditions: in vivo
[16] = Cmax in Sprague-Dawley rat; format: ADME, organism-based; conditions: in vivo
[17] = Bioavailability in Sprague-Dawley rat; format: ADME, organism-based; conditions: in vivo
[18] = Half life in Sprague-Dawley rat; format: ADME, organism-based; conditions: in vivo
[19] = test system: Hepatocyte; test: Metabolic stability in rat hepatocytes after 2 hrs; format: ADME, cell-based

Chain of Procathepsin L (Homo sapiens, UniProt P07711) (P07711 whole entry): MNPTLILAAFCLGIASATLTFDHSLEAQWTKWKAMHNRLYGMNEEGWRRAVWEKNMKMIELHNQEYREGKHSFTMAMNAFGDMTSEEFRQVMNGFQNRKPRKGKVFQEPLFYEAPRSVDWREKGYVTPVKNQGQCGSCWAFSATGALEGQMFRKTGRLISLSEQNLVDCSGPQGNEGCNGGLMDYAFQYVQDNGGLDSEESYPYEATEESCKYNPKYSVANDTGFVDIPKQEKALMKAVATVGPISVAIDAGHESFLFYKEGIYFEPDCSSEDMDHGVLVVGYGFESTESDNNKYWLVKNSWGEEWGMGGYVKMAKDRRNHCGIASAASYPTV
Chain of Cathepsin S (Rattus norvegicus, UniProt Q02765) (Q02765 whole entry): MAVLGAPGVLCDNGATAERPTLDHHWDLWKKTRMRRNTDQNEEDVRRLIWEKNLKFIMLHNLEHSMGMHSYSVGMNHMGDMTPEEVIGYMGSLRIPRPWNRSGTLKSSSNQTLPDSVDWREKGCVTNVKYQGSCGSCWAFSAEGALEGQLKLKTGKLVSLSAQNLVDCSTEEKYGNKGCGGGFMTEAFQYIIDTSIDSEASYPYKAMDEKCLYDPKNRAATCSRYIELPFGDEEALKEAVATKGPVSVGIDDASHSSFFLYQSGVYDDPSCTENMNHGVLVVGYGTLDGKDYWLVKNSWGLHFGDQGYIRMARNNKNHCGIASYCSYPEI
Chain of Cathepsin B (Mus musculus, UniProt P10605) (P10605 whole entry): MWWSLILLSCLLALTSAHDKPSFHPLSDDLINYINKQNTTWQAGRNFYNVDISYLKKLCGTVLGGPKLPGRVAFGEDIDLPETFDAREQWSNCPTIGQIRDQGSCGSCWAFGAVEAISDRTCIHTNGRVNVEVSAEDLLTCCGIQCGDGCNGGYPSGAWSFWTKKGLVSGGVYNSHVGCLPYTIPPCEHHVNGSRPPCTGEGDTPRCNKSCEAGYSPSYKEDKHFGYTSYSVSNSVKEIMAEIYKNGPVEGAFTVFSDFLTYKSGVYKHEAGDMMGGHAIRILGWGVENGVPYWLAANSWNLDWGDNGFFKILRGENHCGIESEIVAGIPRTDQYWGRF
Chain of Cathepsin B (Rattus norvegicus, UniProt P00787) (P00787 whole entry): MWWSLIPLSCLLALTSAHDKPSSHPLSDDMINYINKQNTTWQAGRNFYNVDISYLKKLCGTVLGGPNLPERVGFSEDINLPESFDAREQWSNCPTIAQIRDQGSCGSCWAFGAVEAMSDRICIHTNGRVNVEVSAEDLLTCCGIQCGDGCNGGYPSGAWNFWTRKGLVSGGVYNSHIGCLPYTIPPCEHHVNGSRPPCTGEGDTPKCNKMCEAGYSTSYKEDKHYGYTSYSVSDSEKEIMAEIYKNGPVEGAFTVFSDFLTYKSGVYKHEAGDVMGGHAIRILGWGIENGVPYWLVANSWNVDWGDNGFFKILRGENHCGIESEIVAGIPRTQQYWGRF
Chain of Cathepsin S (Mus musculus, UniProt O70370) (O70370 whole entry): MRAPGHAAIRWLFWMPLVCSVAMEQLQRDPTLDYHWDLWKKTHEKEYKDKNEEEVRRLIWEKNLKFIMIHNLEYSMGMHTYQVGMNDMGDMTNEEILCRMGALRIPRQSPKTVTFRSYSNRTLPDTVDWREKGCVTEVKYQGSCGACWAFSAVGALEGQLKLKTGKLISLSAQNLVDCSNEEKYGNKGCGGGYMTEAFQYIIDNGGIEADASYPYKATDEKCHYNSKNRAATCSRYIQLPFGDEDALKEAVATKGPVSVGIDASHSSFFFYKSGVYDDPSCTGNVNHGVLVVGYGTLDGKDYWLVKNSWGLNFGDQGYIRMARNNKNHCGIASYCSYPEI
Chain of Cathepsin S (Homo sapiens, UniProt P25774) (P25774 whole entry): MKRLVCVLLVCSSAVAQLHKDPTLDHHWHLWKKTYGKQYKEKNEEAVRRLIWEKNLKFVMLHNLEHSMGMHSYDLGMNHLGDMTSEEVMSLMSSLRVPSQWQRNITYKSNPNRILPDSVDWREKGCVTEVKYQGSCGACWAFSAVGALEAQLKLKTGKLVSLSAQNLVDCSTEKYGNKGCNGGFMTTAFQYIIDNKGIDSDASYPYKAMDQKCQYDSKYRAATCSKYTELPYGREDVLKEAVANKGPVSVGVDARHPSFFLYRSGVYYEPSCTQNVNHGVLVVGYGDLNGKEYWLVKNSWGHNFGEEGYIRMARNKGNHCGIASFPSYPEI

Compound	IC50 [1] [µM]	IC50 [2] [µM]	IC50 [3] [µM]	IC50 [4] [µM]	IC50 [5] [µM]	IC50 [6] [µM]	IC50 [7] [µM]	IC50 [8] [µM]	IC50 [9] [µM]	IC50 [10] [µM]	IC50 [11] [µM]	IC50 [12] [µM]	bioavailability [13] [%]	Cmax [14] [nM]	t1/2 [15] [h]	Cmax [16] [nM]	bioavailability [17] [%]	half-life [18] [h]	Stability [19]
N#CC1(NC(=O)[C@H](CS(=O)(=O)CC2CC2)N[C@@H](c2ccccc2)C(F)(F)F)CC1					0.555		0.287	0.0006			0.068								
CS(=O)(=O)C[C@H](N[C@@H](c1cccc(F)c1)C(F)(F)F)C(=O)NC1(C#N)CC1					0.314		3.85	0.0064			0.911								
N#CC1(NC(=O)[C@H](CS(=O)(=O)c2nc3ccccc3s2)N[C@@H](c2ccccc2)C(F)(F)F)CC1					0.825		2.97	0.0013			0.114								
N#CC1(NC(=O)[C@H](CS(=O)(=O)Cc2ccccc2-c2ccccc2)N[C@@H](c2ccc(F)cc2)C(F)(F)F)CC1					> 10		4.04	0.0018			> 10								
N#CC1(NC(=O)[C@H](CS(=O)(=O)c2ccc(F)cc2)N[C@@H](c2ccc(F)cc2)C(F)(F)F)CC1					0.305		7.28	0.0004			0.022								
N#CC1(NC(=O)[C@H](CS(=O)(=O)c2ccc(Cl)c(Cl)c2)N[C@@H](c2ccc(F)cc2)C(F)(F)F)CC1					0.691		4.81	0.0002			0.041		35	250	1.2				
N#CC1(NC(=O)[C@H](CS(=O)(=O)CC2CC2)N[C@@H](c2ccc(F)cc2)C(F)(F)F)CC1		0.272	> 10	0.0009	2	0.759	1	0.0005	0.253	0.738	0.188	0.332				2800	40	3.8	
N#CC1(NC(=O)[C@H](CS(=O)(=O)Cc2cccc(F)c2F)N[C@@H](c2ccccc2)C(F)(F)F)CC1					> 10		1.84	0.0003			0.105								
CC(C)CS(=O)(=O)C[C@H](N[C@@H](c1ccc(F)cc1)C(F)(F)F)C(=O)NC1(C#N)CC1					3.06		0.337	0.0004			0.132					140	5	1.6	
N#CC1(NC(=O)[C@H](CS(=O)(=O)Cc2ccc(F)cc2)N[C@@H](c2ccccc2)C(F)(F)F)CC1					> 10		2.78	0.0005			0.086								
N#CC1(NC(=O)[C@H](CS(=O)(=O)Cc2cccc(F)c2F)N[C@@H](c2ccc(F)cc2)C(F)(F)F)CC1		0.384	> 10	0.0008	> 10	0.021	1.32	0.0003	0.384	0.399	0.121	0.662				46	3	1.2	
N#CC1(NC(=O)[C@H](CS(=O)(=O)c2nccs2)N[C@@H](c2ccccc2)C(F)(F)F)CC1					0.376		3.61	0.005			0.181								
N#CC1(NC(=O)[C@H](CS(=O)(=O)Cc2c(F)cccc2F)N[C@@H](c2ccc(F)cc2)C(F)(F)F)CC1					> 10		> 10	0.0007			0.249								
C[S+]([O-])C[C@H](N[C@@H](c1ccc(Br)cc1)C(F)(F)F)C(=O)NC1(C#N)CC1 (stereo partly drawn)					0.639		8.03	2.17			> 10								
CC(C)(c1ccc(F)cc1)S(=O)(=O)C[C@H](N[C@@H](c1ccc(F)cc1)C(F)(F)F)C(=O)NC1(C#N)CC1					> 10		> 10	0.627			> 10								
N#CC1(NC(=O)[C@H](CS(=O)(=O)c2ccc(Cl)c(Cl)c2)N[C@@H](c2ccccc2)C(F)(F)F)CC1		5.69	1.46	< 0.0002	0.314	0.015	8.51	0.0002	3.02	0.048	0.024	0.059	30	660	1.7	88	9	1.7	

Compounds with a lower IC50 [5], results first:

IC50 [1] [µM]	IC50 [2] [µM]	IC50 [3] [µM]	IC50 [4] [µM]	IC50 [5] [µM]	IC50 [6] [µM]	IC50 [7] [µM]	IC50 [8] [µM]	IC50 [9] [µM]	IC50 [10] [µM]	IC50 [11] [µM]	IC50 [12] [µM]	bioavailability [13] [%]	Cmax [14] [nM]	t1/2 [15] [h]	Cmax [16] [nM]	bioavailability [17] [%]	half-life [18] [h]	Stability [19]	Compound
0.0012	0.735	0.388	0.0005	0.0062	0.0017	4.5	0.0012	1.28	0.0041										CC(C)C[C@@H](NC(=O)N1CCOCC1)C(=O)N[C@@H](/C=C/S(=O)(=O)c1ccccc1)CCc1ccccc1
				0.0053		0.17	0.01			> 10									CS(=O)(=O)C[C@H](N[C@@H](c1ccc(-c2ccc(F)cc2)cc1)C(F)(F)F)C(=O)NC1(C#N)CC1
				0.0003		7.74	0.265			0.456									CC(C)C[C@H](N[C@@H](c1ccc(-c2ccc(S(C)(=O)=O)cc2)cc1)C(F)(F)F)C(=O)NC1(C#N)CC1
				0.141		1.98	0.0025			1.03									CS(=O)(=O)C[C@H](N[C@@H](c1ccccc1)C(F)(F)F)C(=O)NC1(C#N)CC1
				0.005		0.417	0.08			0.456									CSC[C@H](N[C@@H](c1ccc(Br)cc1)C(F)(F)F)C(=O)NC1(C#N)CC1
	1.81	1.32	0.0002	0.29	0.066	3.45	0.0003	1.75	0.072	0.015	0.039								N#CC1(NC(=O)[C@H](CS(=O)(=O)c2ccc(Br)cc2)N[C@@H](c2ccccc2)C(F)(F)F)CC1
	4.7	2.55	< 0.0002	0.269	0.044	6.63	0.0002	4.01	0.132	0.023	0.09								N#CC1(NC(=O)[C@H](CS(=O)(=O)c2cccc(Br)c2)N[C@@H](c2ccccc2)C(F)(F)F)CC1
	0.066	1.03	0.0016	0.031	1.05		0.011	0.069	1.28		2.22				3300	40	11	Stable	CS(=O)(=O)C[C@H](N[C@@H](c1ccc(Br)cc1)C(F)(F)F)C(=O)NC1(C#N)CC1
4.81	0.925	0.043	0.254	0.0002	2.44			0.54	0.09		0.254								CC(C)C[C@H](N[C@@H](c1ccc(-c2ccc(S(C)(=O)=O)cc2)cc1)C(F)(F)F)C(=O)NCC#N
